Experimental data: patent publication US11066414B2, “Cot modulators and methods of use thereof” (Gilead Sciences, Inc., priority 2015, dated 2021)
Like-named read-outs stand apart in the source and are kept apart here.

Experiments:
[1] = target: Human Cot (Homo sapiens (Human), UniProt P41279); assay: High Throughput Cot Biochemical Assay
[2] = test system: TNFα; assay: Cot Monocyte TNFα Cell Based Assay
[3] = IC50 HTRF, Cot HTRF (TR-FRET) biochemical assay
[4] = Homo sapiens, Monocyte, read-out: EC50 TNF, LPS-stimulated human monocytes, TNFα
[5] = IC50 HTRF, Cot HTRF (TR-FRET KinEASE) biochemical assay, 400 μM ATP
[6] = Homo sapiens, Monocyte, read-out: EC50 TNF, LPS-stimulated human monocytes, TNFα TR-FRET
[7] = read-out: IC50 HTRF, Cot HTRF (TR-FRET KinEASE) biochemical assay, 400 μM ATP
[8] = read-out: EC50 TNF, LPS-stimulated human monocytes, TNFα TR-FRET

Sequence of Human Cot (P41279 30-397): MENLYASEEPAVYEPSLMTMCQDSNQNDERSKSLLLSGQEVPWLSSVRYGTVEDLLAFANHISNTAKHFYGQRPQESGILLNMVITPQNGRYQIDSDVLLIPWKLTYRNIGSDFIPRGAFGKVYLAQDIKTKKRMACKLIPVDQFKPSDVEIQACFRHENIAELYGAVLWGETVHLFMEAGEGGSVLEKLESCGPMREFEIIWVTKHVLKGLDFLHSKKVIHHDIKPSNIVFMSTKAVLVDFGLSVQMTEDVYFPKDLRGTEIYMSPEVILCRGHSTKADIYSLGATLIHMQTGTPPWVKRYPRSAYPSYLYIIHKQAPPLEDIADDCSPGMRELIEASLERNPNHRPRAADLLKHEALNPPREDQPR

| Molecule | IC50 [1, 3] [µM] | EC50 [2, 4] [µM] | further results |
| --- | --- | --- | --- |
| N#CCCC(Nc1c(C#N)cnc2c(Cl)cc(N[C@H](c3cn(C4CC4)nn3)c3csc4c3CCN(C3COC3)C4)cc12)c1ccccc1 (stereo partly drawn) [Example 90, 8-chloro-4-((3-cyano-1-phenyl-propyl)amino)-6-(((S)-(1-cyclopropyl-1H-1,2,3-triazol-4-yl)(6-(oxetan-3-yl)-4,5,6,7-tetrahydrothieno[2,3-c]pyridin-3-yl)methyl)amino)quinoline-3-carbonitrile] | 0.001 | 0.018 |  |
| Cc1nc(F)ccc1[C@H](Nc1cc(Cl)c2ncc(C#N)c(NCC(C)(C)C)c2c1)c1cn(C2(C(F)(F)F)CC2)nn1 [Example 432, (S)-8-chloro-6-(((6-fluoro-2-methyl-pyridin-3-yl)(1-(1-(trifluoromethyl)-cyclopropyl)-1H-1,2,3-triazol-4-yl)methyl)amino)-4-(neopentylamino)-quinoline-3-carbonitrile] | 0.006 | 0.089 |  |
| Cc1nc(C#N)ccc1[C@H](Nc1cc(C#N)c2ncc(C#N)c(NCC(C)(C)C)c2c1)c1cn(C2(C(F)(F)F)CC2)nn1 [Example 830, (S)-6-(((6-cyano-2-methylpyridin-3-yl)(1-(1-(trifluoromethyl)cyclopropyl)-1H-1,2,3-triazol-4-yl)methyl)amino)-4-(neopentylamino)quinoline-3,8-dicarbonitrile] |  |  | IC50 [1, 5]: 0.016 µM; EC50 [2, 6]: 0.384 µM |
| Cc1nc(F)ccc1[C@H](Nc1cc(C#N)c2ncc(C#N)c(NCC(C)(C)C)c2c1)c1cn(C2(C)CC2)nn1 [Example 492, (S)-6-(((6-fluoro-2-methylpyridin-3-yl)(1-(1-methylcyclopropyl)-1H-1,2,3-triazol-4-yl)methyl)amino)-4-(neopentylamino)-quinoline-3,8-dicarbonitrile] | 0.002 | 0.021 |  |
| Cc1ncsc1[C@H](Nc1cc(Cl)c2ncc(C#N)c(Nc3ccc(Cl)c(Cl)c3F)c2c1)c1c[nH]nn1 [Example 234, (R)-8-chloro-4-((3,4-dichloro-2-fluorophenyl)amino)-6-(((4-methylthiazol-5-yl)(1H-1,2,3-triazol-4-yl)methyl)amino)quinoline-3-carbonitrile] | 0.021 | 0.504 |  |
| Cc1cncc([C@H](Nc2cc(Cl)c3ncc(C#N)c(Nc4ccc(F)c(Cl)c4)c3c2)c2cn(C(C)C)nn2)c1 [Example 228, (S)-8-chloro-4-((3-chloro-4-fluorophenyl)amino)-6-(((1-isopropyl-1H-1,2,3-triazol-4-yl)(5-methylpyridin-3-yl)methyl)amino)quinoline-3-carbonitrile] | 0.018 | 2.31 |  |
| Cc1nc(F)ccc1[C@H](Nc1cc(C#N)c2ncc(C#N)c(N[C@@H]3CCOCC3(C)C)c2c1)c1cn(C2(C3CC3)CC2)nn1 [Example 675] |  |  | IC50 ([1]; read-out: IC50 HTRF, Cot HTRF (TR-FRET) biochemical assay): 0.001 µM; EC50 ([2]; read-out: EC50 TNF, LPS-stimulated human monocytes, TNFα): 0.007 µM |
| Cc1n[nH]c2cccc([C@H](Nc3cc(C#N)c4ncc(C#N)c(NCC(C)(C)C)c4c3)c3cn(C4(C(F)(F)F)CC4)nn3)c12 [Example 528, (S)-6-(((3-methyl-1H-indazol-4-yl)(1-(1-(trifluoro-methyl)cyclopropyl)-1H-1,2,3-triazol-4-yl)methyl)amino)-4-(neopentylamino)quinoline-3,8-dicarbonitrile] | 0.003 | 0.06 |  |
| CC(C)(C)CNc1c(C#N)cnc2c(Cl)cc(NC(c3cn(C4CC4)nn3)c3csc4c3CCN(C3COC3)C4)cc12 (stereo not drawn) [Example 91, 8-chloro-6-(((1-cyclopropyl-1H-1,2,3-triazol-4-yl)(6-(oxetan-3-yl)-4,5,6,7-tetrahydro-thieno[2,3-c]pyridin-3-yl)-methyl)amino)-4-(neopentylamino)-quinoline-3-carbonitrile] | 0.002 | 0.052 |  |
| Cc1nc(F)ccc1[C@H](Nc1cc(-c2cncnc2)c2ncc(C#N)c(NCC(C)(C)C)c2c1)c1cn(C2(C(F)F)CC2)nn1 [Example 976] |  |  | IC50 [1, 7]: 0.021 µM; EC50 [2, 8]: 0.276 µM |
| (S)-6-(((1-(1,1′-bi(cyclopropan)]-1-yl)-1H- 1,2,3-triazol-4-yl)(1-methoxylsoquinolin- 5-yl)methyl)amino)-8-chloro-4- (neopentylamino)quinoline-3-carbonitrile [Example 931] |  |  | IC50 [1, 7]: 0.01 µM; EC50 [2, 8]: 0.134 µM |
| CC(C)(CNc1c(C#N)cnc2c(Cl)cc(N[C@H](c3cn(C45CC(C4)C5)nn3)c3ccc(F)c4ncccc34)cc12)C(F)(F)F [Example 917, (S)-6-(((1-(bicyclo[1.1.1]pentan-1-yl)-1H-1,2,3-triazol-4-yl)(8-fluoroquinolin-5-yl)methyl)amino)-8-chloro-4-((3,3,3-trifluoro-2,2-dimethylpropyl)amino)quinoline-3-carbonitrile] |  |  | IC50 [1, 5]: 0.003 µM; EC50 [2, 6]: 0.031 µM |
| COCCn1cc([C@@H](Nc2cc(Cl)c3ncc(C#N)c(Nc4ccc(F)c(Cl)c4)c3c2)c2cscn2)nn1 [Example 358, (S)-8-chloro-4-((3-chloro-4-fluorophenyl)amino)-6-(((1-(2-methoxyethyl)-1H-1,2,3-triazol-4-yl)(thiazol-4-yl)methyl)amino)-quinoline-3-carbonitrile] | 0.003 | 0.13 |  |
| Cc1nc(F)ccc1[C@H](Nc1cc(C#N)c2ncc(C#N)c(NCC(C)(C)C)c2c1)c1cn(Cc2c(F)cccc2F)nn1 [Example 601, (S)-6-(((1-(2,6-difluorobenzyl)-1H-1,2,3-triazol-4-yl)(6-fluoro-2-methylpyridin-3-yl)methyl)amino)-4-(neopentylamino)quinoline-3,8-dicarbonitrile] | 0.004 | 0.032 |  |
| Cc1ccc([C@H](Nc2cc(C#N)c3ncc(C#N)c(NCC(C)(C)C)c3c2)c2cn(C3(C(F)F)CC3)nn2)c(C)n1 [Example 829, (S)-6-(((1-(1-(difluoromethyl)-cyclopropyl)-1H-1,2,3-triazol-4-yl)(2,6-dimethylpyridin-3-yl)methyl)amino)-4-(neopentylamino)quinoline-3,8-dicarbonitrile] |  |  | IC50 [1, 5]: 0.004 µM; EC50 [2, 6]: 0.066 µM |
| CC(C)(C)CNc1c(C#N)cnc2c(Cl)cc(N[C@@H](c3cccnc3)c3cn(C4COC4)nn3)cc12 [Example 168, (S)-8-chloro-4-(neopentylamino)-6-(((1-(oxetan-3-yl)-1H-1,2,3-triazol-4-yl)(pyridin-3-yl)methyl)amino)quinoline-3-carbonitrile] | 0.006 | 0.394 |  |
| Cn1nnc2cccc([C@H](Nc3cc(Cl)c4ncc(C#N)c(NCC(C)(C)C)c4c3)c3cn(C4(C(F)F)CC4)nn3)c21 [Example 542, (S)-8-chloro-6-(((1-(1-(difluoromethyl)-cyclopropyl)-1H-1,2,3-triazol-4-yl)(1-methyl-1H-benzo[d][1,2,3]triazol-7-yl)methyl)amino)-4-(neopentylamino)-quinoline-3-carbonitrile] | 0.002 | 0.04 |  |
| CC(C)(C)n1cc([C@@H](Nc2cc(Cl)c3ncc(C#N)c(Nc4ccc(F)c(Cl)c4)c3c2)c2cocn2)nn1 [Example 310, (S)-6-(((1-(tert-butyl)-1H-1,2,3-triazol-4-yl)(oxazol-4-yl)methyl)amino)-8-chloro-4-((3-chloro-4-fluorophenyl)amino)-quinoline-3-carbonitrile] | 0.04 | 2.34 |  |
| CC(C)(C)CNc1c(C#N)cnc2c(C#N)cc(N[C@H](c3cn(C4(C(N)=O)CCC4)nn3)c3cccc4cnccc34)cc12 [Example 587, (S)-1-(4-(((3,8-dicyano-4-(neopentylamino)-quinolin-6-yl)amino)(isoquinolin-5-yl)methyl)-1H-1,2,3-triazol-1-yl)cyclobutane-1-carboxamide] | 0.001 | 0.489 |  |
| Cc1nc(F)ccc1[C@H](Nc1cc(Cl)c2ncc(C#N)c(N[C@H]3CCOCC3(C)C)c2c1)c1cn(C2(C(F)F)CC2)nn1 [Example 540, 8-chloro-6-(((S)-(1-(1-(difluoromethyl)-cyclopropyl)-1H-1,2,3-triazol-4-yl)(6-fluoro-2-methylpyridin-3-yl)methyl)-amino)-4-(((S)-3,3-dimethyltetrahydro-2H-pyran-4-yl)amino)quinoline-3-carbonitrile] | 0.05 | 0.76 |  |
| [2H][C@](Nc1cc(C#N)c2ncc(C#N)c(N[C@H](CC)c3ccccc3)c2c1)(c1ccc(F)nc1)c1cn(C2CC2)nn1 [Example 117, 6-(((S)-(-cyclopropyl-1H-1,2,3-triazol-4-yl)(6-fluoropyridin-3-yl)methyl-d)amino)-4-(((R)-1-phenylpropyl)amino)quinoline-3,8-dicarbonitrile] | 0.003 | 0.094 |  |

Continued, in another order:

| IC50 [1, 3] [µM] | EC50 [2, 4] [µM] | Molecule | further results |
| --- | --- | --- | --- |
| 0.004 | 0.036 | Cn1ccc2c([C@H](Nc3cc(Cl)c4ncc(C#N)c(NCC(C)(C)C)c4c3)c3cn(C(C)(C)C)nn3)cccc2c1=O [Example 747, (S)-6-(((1-(tert-butyl)-1H-1,2,3-triazol-4-yl)(2-methyl-1-oxo-1,2-dihydroisoquinolin-5-yl)methyl)amino)-8-chloro-4-(neopentylamino)quinoline-3-carbonitrile] |  |
| 0.009 | 0.154 | Cc1nc(F)ccc1[C@H](Nc1cc(C#N)c2ncc(C#N)c(NCC(C)(C)c3ccccc3)c2c1)c1cn(C2(C(F)(F)F)CC2)nn1 [Example 614, (S)-6-(((6-fluoro-2-methylpyridin-3-yl)(1-(1-(trifluoromethyl)cyclopropyl)-1H-1,2,3-triazol-4-yl)methyl)amino)-4-((2-methyl-2-phenylpropyl)amino)quinoline-3,8-dicarbonitrile] |  |
| 0.005 | 0.182 | Cc1nc(F)ccc1[C@H](Nc1cc(C#N)c2ncc(C#N)c(NCC(C)(C)C)c2c1)c1cn(C2(C(=O)N(C)C)CC2)nn1 [Example 642, (S)-1-(4-(((3,8-dicyano-4-(neopentylamino)quinolin-6-yl)amino)(6-fluoro-2-methylpyridin-3-yl)methyl)-1H-1,2,3-triazol-1-yl)-N,N-dimethylcyclopropane-1-carboxamide] |  |
